# Laboratory results from patent US9458120B2, “Phenoxypropanol derivative and pharmaceutical composition including the same” (KOREA INSTITUTE OF SCIENCE AND TECHNOLOGY, priority 2011, dated 2016).
# Key:
# [1] = target: α1G T-type calcium channel (Homo sapiens, UniProt O43497); assay: Assay for T-type calcium channel inhibition activity (FDSS6000 calcium imaging, KCl activation); format: cell-based; conditions: 75 s pre-treatment then KCl 75 mM, HEK293 cells expressing α1G T-type calcium channel and Kir2.1
# α1G T-type calcium channel, sequence (O43497 whole entry): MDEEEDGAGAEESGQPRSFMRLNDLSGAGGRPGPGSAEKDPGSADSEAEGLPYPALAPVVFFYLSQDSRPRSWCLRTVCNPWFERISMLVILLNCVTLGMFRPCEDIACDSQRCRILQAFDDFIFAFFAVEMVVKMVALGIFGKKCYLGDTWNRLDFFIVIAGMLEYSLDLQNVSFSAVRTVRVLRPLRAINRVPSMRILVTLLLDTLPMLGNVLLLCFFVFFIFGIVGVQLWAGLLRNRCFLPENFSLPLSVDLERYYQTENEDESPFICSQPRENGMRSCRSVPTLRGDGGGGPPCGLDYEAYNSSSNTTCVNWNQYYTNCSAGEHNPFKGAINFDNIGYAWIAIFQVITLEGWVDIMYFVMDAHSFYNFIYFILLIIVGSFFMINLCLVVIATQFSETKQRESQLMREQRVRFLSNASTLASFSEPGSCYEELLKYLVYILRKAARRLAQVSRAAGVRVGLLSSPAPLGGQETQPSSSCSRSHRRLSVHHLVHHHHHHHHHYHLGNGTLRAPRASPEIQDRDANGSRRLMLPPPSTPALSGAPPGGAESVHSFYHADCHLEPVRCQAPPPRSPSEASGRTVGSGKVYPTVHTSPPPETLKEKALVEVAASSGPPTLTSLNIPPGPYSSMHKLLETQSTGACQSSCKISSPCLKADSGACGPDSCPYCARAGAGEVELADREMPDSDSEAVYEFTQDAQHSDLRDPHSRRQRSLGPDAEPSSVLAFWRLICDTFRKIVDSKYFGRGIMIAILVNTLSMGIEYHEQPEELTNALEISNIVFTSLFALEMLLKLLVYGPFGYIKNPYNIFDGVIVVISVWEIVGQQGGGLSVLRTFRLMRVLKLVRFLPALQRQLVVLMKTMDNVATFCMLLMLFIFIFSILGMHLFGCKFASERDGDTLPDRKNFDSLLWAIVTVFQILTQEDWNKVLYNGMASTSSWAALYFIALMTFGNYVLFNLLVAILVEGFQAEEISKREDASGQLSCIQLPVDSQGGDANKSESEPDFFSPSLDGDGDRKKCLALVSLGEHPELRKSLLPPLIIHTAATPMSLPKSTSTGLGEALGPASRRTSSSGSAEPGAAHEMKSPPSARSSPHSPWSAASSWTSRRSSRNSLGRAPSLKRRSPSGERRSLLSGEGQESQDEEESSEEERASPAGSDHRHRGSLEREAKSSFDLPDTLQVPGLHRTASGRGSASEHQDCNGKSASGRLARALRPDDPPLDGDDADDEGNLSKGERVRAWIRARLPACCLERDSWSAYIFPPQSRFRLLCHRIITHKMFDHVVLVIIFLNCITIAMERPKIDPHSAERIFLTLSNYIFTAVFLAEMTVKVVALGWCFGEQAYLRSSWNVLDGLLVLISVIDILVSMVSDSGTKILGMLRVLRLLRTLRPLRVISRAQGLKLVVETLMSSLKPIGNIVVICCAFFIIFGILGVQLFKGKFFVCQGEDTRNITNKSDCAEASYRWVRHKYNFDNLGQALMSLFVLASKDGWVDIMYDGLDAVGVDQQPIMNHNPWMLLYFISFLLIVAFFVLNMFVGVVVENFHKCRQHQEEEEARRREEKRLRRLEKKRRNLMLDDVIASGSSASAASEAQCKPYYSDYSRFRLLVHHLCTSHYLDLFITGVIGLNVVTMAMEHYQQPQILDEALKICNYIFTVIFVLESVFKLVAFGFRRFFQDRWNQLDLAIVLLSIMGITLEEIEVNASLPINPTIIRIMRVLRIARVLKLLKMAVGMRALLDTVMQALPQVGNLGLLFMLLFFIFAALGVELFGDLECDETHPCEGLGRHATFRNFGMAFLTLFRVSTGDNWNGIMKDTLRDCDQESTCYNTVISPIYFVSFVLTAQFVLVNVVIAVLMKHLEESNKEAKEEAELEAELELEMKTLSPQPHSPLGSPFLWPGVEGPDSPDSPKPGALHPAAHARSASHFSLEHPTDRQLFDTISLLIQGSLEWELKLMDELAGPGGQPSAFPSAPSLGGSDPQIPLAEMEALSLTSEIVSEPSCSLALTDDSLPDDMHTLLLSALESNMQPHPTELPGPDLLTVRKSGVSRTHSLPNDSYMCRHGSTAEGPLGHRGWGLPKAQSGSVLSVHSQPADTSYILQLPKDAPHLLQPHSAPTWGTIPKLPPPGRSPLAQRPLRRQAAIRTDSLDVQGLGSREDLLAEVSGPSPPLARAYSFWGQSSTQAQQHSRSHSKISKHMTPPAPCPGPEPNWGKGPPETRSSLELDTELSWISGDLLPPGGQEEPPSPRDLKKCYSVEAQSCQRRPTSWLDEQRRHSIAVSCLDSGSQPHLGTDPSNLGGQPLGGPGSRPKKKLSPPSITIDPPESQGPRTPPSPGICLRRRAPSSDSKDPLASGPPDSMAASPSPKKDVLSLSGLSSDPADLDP
# Protocol: At 12-24 hours before the assay for T-type calcium channel activity, cells of HEK293 cell line (α1G cell line: KCTC 10519BP, GenBank, Korea Research Institute of Bioscience and Biotechnology) which stably express α1G T-type calcium channel and Kir2.1, were sub-cultured in a poly-L-lysine (0.05 mg/ml) treated 96-well plate with the density of 4×10^4 per a well using a 96-well cell dispenser (Titertek). On the day of assay, the 96-well plate to which the cells were attached were washed three times with a HEPES buffer solution (unit mM: 150 NaCl, 5 KCl, 1 MgCl2, 2 CaCl2, 10 HEPES, 10 glucose, pH 7.4) using a 96-well plate automatic washing device (Bio Tek), and then reacted with a HEPES buffer solution containing 5 μM fluo-3/AM and 0.001% (w/v) Pluronic F-127 at room temperature for 1 hour, to label with fluorescent dye, and then further washed twice with the HEPES buffer solution. Thereafter, at 10 minutes before the measurement using a FDSS6000 device, a washing with a HEPES buffer solution containing 10 mM CaCl2 was conducted once more, and the final volume was adjusted to 81 μl. Besides the above 96-well plate containing the cells, additional two 96-well drug plates were provided, in which the 96-well plates contained KCl (final concentration: 75 mM) for activating T-type calcium channel and a blocker drug, respectively.
# Since most of cell-based HTS (High throughput screening) devices are equipped with a liquid application system for drug injection, but have no liquid sucking system, the blocker drug to be tested and KCl were respectively provided at the five-times higher concentration in 10 mM CaCl2 HEPES buffer solution at the amount of 27 μl, diluted five-times at the final cell plate volume of 135 μl, and then used in this test. In this Experimental Example, therefore, FDSS6000 (Hamamatsu Photonics) was used as an alternative to HTS device.
# Specific FDSS6000 measurement conditions are as follows: After recording the reference value of 20 seconds, the change of intracellular calcium concentration which induced by pre-treatment of the drug (the prepared […]) for 75 seconds followed by administration of KCl was measured, in which the percentage (%) inhibition effect of the test drug was determined, through estimating the area of ratio value of 340/380 in the control without treatment of the test drug as 100%. As a reference drug, 10 μM of mibefradil was always used.
# For accurate calcium-imagination, the light sources of 4 xenon lamps in FDSS6000 were radiated to make the cells exposed selectively to the excitation wavelength (340 nm and 380 nm) by computer-controlled filter wheel. Data was obtained at interval of each 1.23 second. The emitter fluorescence light inflow through a 515 nm long-pass filter was obtained as an average 340/380 ratio value for each well in the 96-wells by a cooled CCD camera and digital fluorescence analyzer in the device. All image data and analysis were obtained by using a FDSS6000-exclusive program provided by Hamamatsu Photonics, as described above.
# TREK-1 channel = target: T1, TREK-1 channel (Rattus norvegicus, UniProt Q920B6); assay: Assay for TREK channel inhibition activity (whole cell patch clamp recording, COS7 cell transfected with GFP-rTREK-1); format: cell-based; conditions: COS7 cells, GFP-rTREK-1, whole-cell patch clamp; for inhibition at 101 µM: COS-7, Table 3 (value ± spread), 101 μM [sic], read-out: block % at 101 μM; for inhibition at 10 µM: COS-7, Table 2, read-out: block % at 10 μM
# T1 construct: expressed in transfected cells; host or cells: COS7 (Korean Cell Line Bank), transient transfection with Effectene
# T1 sequence (Q920B6 1-426): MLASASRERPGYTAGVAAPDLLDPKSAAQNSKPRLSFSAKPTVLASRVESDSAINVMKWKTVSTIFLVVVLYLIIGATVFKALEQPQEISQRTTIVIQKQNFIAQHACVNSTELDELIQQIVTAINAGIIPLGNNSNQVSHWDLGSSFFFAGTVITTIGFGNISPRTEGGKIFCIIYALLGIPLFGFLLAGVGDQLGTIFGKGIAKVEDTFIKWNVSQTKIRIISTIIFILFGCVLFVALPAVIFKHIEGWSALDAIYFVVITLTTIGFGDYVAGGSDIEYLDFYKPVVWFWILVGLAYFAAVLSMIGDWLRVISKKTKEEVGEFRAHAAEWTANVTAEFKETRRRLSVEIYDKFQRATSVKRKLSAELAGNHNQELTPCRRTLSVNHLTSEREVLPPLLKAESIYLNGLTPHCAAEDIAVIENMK
# Protocol: The inhibition activity of the compound of the present invention against TREK-1 channel was measured by measuring the physiological activity by whole cell patch clamp recording.
# COS7 cell (obtained from Korean Cell Line Bank (KCLB)) was transfected with GFP-rTREK-1 gene (accession number: AY727922) using an Effectene transfection reagent (Qiagen), and cultured for 24 hours in an incubator at 37° C. As a culture medium, Dulbecco's modified Eagle's medium (DMEM, GIBCO products from Invitrogen) containing 10% by weight of fetal bovine serum (FBS) and 1% by weight of penicillin/streptomycin (5000 unit/ml) was used. The cells thus prepared were adhered on a cover glass, which was placed on a chamber, and then a recording solution (150 mM NaCl, 10 mM HEPES, 10 mM KCl, 2 mM CaCl2, 5.5 mM D-Glucose, all reagents were purchased from Sigma) was applied. A glass microelectrode was filled with an intracellular solution prepared with the composition of 150 mM KCl, 5 mM EGTA, 10 mM HEPES, 0.5 mM CaCl2, 1 mM MgCl2, 4 mM Mg-ATP, and 0.3 mM Na-GTP (all reagents were purchased from Sigma), followed by whole-cell patch clamp recording. The voltage was fixed at −70 mV using a Digidata 1322A data acquisition system (Molecular Devices) and an Axopatch 200A amplifier (Axon Instruments), and the current generated by applying a voltage ramp from −100 mV to +100 mV for 1 second was measured using a Clampex9.2 program. A difference between the current values measured at +100 mV and −100 mV was defined as a current in the above experiment. The currents before and after blocker treatment were measured so as to determine the inhibition activity.
# Block %=100−(current after blocker treatment/current before blocker treatment)*100
Structure (SMILES),inhibition [1] [%],inhibition at 101 µM (TREK-1 channel) [%],inhibition at 10 µM (TREK-1 channel) [%]
"Cc1ccc(OC[C@@H](O)CN2CCN(CC(=O)NCc3ccccc3)CC2)cc1 [KKRE10197, (S)-N-benzyl-2-(4-(2-hydroxy-3-(p-tolyloxy)propyl)piperazin-1-yl)acetamide]",27.1,13.5 ± 3.9,–
"O=C(CN1CCN(C[C@@H](O)COc2ccc(C(F)(F)F)cc2)CC1)NC1CCCCC1 [KKRE10176, (R)-N-cyclohexyl-2-(4-(2-hydroxy-3-(4-(trifluoromethyl)phenoxy)propyl)piperazin-1-yl)acetamide]",43.9,33.5 ± 5.67,–
"Cc1ccccc1-n1nc(CNC(=O)CN2CCN(C[C@@H](O)COc3ccc(F)cc3)CC2)cc1CC(C)C [KKRE10225, (R)-2-(4-(3-(4-Fluorophenoxy)-2-hydroxypropyl)piperazin-1-yl)-N-((5-isobutyl-1-o-tolyl-1H-pyrazol-3-yl)methyl)acetamide]",81.1,13.1 ± 6.19,–
"CC(C)Cc1cc(CNC(=O)CN2CCN(C[C@H](O)COc3ccc(C(F)(F)F)cc3)CC2)nn1-c1cc(Cl)cc(Cl)c1 [KKRE10220, (S)-N-((1-(3,5-dichlorophenyl)-5-isobutyl-1H-pyrazol-3-yl)methyl)-2-(4-(2-hydroxy-3-(4-(trifluoromethyl)phenoxy)propyl)piperazin-1-yl)acetamide]",35.8,41.4 ± 12.7,–
"O[C@@H](COc1ccc(F)cc1)CN1CCC(N2CCCCC2)CC1 [KKRE10158, (R)-1-(1,4′-bipiperidin-1′-yl)-3-(4-fluorophenoxy)propan-2-ol]",6.65,16.8 ± 2.73,–
"Cc1ccc(CNC(=O)CN2CCN(C[C@@H](O)COc3ccc(C)cc3)CC2)cc1 [KKRE10198, (R)-2-(4-(2-hydroxy-3-(p-tolyloxy)propyl)piperazin-1-yl)-N-(4-methylbenzyl)acetamide]",28.6,29.9 ± 3.9,29.9
"O=C(CN1CCN(C[C@H](O)COc2ccc(C(F)(F)F)cc2)CC1)NCc1ccc(C(F)(F)F)cc1 [KKRE10173, (S)-2-(4-(2-hydroxy-3-(4-(trifluoromethyl)phenoxy)propyl)piperazin-1-yl)-N-(4-(trifluoromethyl)benzyl)acetamide]",53.6,63.2 ± 7.6,63.2
"O=C(CN1CCN(C[C@H](O)COc2ccccc2)CC1)NCc1ccccc1 [KKRE10203, (S)-N-benzyl-2-(4-(2-hydroxy-3-phenoxypropyl)piperazin-1-yl)acetamide]",17,38 ± 6.42,38
"CC(C)Cc1cc(CNC(=O)CN2CCN(C[C@@H](O)COc3ccc(F)cc3)CC2)nn1-c1cc(Cl)cc(Cl)c1 [KKRE10223, (R)-N-((1-(3,5-Dichlorophenyl)-5-isobutyl-1H-pyrazol-3-yl)methyl)-2-(4-(3-(4-fluorophenoxy)-2-hydroxypropyl)piperazin-1-yl)acetamide]",63.4,87.6 ± 2.43,–
"CC(C)Cc1cc(CNC(=O)CN2CCN(C[C@H](O)COc3ccc(F)cc3)CC2)nn1-c1ccc(F)cc1 [KKRE10228, (S)-2-(4-(3-(4-Fluorophenoxy)-2-hydroxypropyl)piperazin-1-yl)-N-((1-(4-fluorophenyl)-5-isobutyl-1H-pyrazol-3-yl)methyl)acetamide]",73.2,58.6 ± 4.35,–
"O[C@@H](COc1ccc(F)cc1)CN1CCC(N2CCOCC2)CC1 [KKRE10156, (R)-1-(4-fluorophenoxy)-3-(4-morpholinopiperidin-1-yl)propan-2-ol]",5.31,16.4 ± 5.65,–
O[C@H](COc1ccc(F)cc1)CN1CCC(O)(c2ccccc2)CC1 [KKRE10181],35.4,53.9 ± 1.62,–
"Cc1ccccc1-n1nc(CNC(=O)CN2CCN(C[C@H](O)COc3ccc(C(F)(F)F)cc3)CC2)cc1CC(C)C [KKRE10222, (S)-2-(4-(2-Hydroxy-3-(4-(trifluoromethyl)phenoxy)propyl)piperazin-1-yl)-N-((5-isobutyl-1-o-tolyl-1H-pyrazol-3-yl)methyl)acetamide]",79.2,51.2 ± 12.5,–
